Reference: PMC5719405, “Sex-related pharmacokinetic differences and mechanisms of metapristone (RU486 metabolite)” (Scientific Reports, 2017)
Read-outs that look alike come from different tables or passages of the source.

Legend:
CYP3A4 = test: Western blotting of rat liver CYP3A4 after 7-day oral metapristone; type: in vivo
Protocol: To further confirm CYP1A2 and CYP3A4 are the primary CYP isoforms that metabolize metapristone, we administered oral metapristone (22.5 and 45 mg/kg/day for 7 days) to male and female rats, respectively, and measured the activity of liver CYP1A2 and CYP3A4 by using the western blotting assay. We selected western blot staining density from the controls as the basis (100%) to compare changes in CYP1A2 and CYP3A4 activity after metapristone treatment.
The total microsomal protein was extracted from rat livers prepared by diluting liver microsomal suspension with 1 volume of immunoprecipitation assay lysis buffer (150 mM NaCl, 1% NP-40, 0.5% sodium deoxy-cholic acid, 0.1% SDS, and 50 mM Tris-Cl, pH 7.5) for 15 min and then centrifuged at 13,000 rpm 4 °C for 10 min. Aliquots containing 20 µg of protein were separated by SDS-PAGE on a 10% gradient gel (Invitrogen, USA) and transferred to a PVDF membrane that was blocked with 5% non-fat dry milk in Tris-buffered saline with Tween 20 (200 mM Tris–HCl, 1.37 M NaCl, 0.1% Tween 20, pH 7.6) for 1 h. The membrane was then incubated with rabbit anti-rat CYP1A2 polyclonal antibody (1:2000 dilution), rabbit anti-rat CYP3A4 polyclonal antibody (1:1000 dilution) and glyceraldehyde-3-phosphate dehydrogenase (GAPDH) antibody (1:2000 dilution), overnight at 4 °C. After rinsing five times with buffer TBST at room temperature, the membrane was incubated with horseradish peroxidase (HRP)-labeled anti-rabbit immunoglobulin G (IgG) anti-body (Santa Cruz Biotechnology, USA). The immunoreactive bands were visualized using an enhanced chemiluminescence detection system (ChemiDoc™XRS + , Bio-Rad, Hercules, CA, USA) and quantified by using densitometry Image J 1.41 software.

[1] = Single-dose pharmacokinetics of metapristone in rats (p.o. and i.v.), non-compartmental analysis; type: in vivo, Sprague Dawley (SD) rats; conditions: for MRT last: read-out: MRT (0-t)
Protocol: For pharmacokinetic study, rats were fasted overnight with free access to water using procedures reported previously. Ninety-six SD rats (forty-eight males and forty-eight females) were randomly divided into […] single-dose groups. Rats (six animals/sex/dose) were given a single oral dose of 22.5, 45 and 90 mg/kg metapristone (in soybean oil solution) by intragastric administration or 10 mg/kg metapristone by intravenous bolus injection. Rat blood samples (0.25 mL) were collected from the ocular vein into heparinized tubes prior to and at 0 (before administration), 0.5, 1.0, 1.5, 2.0, 4.0, 6.0, 8.0, 12, 24, 36 and 48 h post-dosing in female rats or 0.5, 1.0, 1.5, 2.0, 4.0, 6.0, 8.0, 12, 24, 30 and 36 h post-dosing in male rats. In the repeated dose study twenty-four rats (six animals/sex/dose) received the same dosing regimen at 45 mg/kg metapristone for 10 days. Blood samples were collected after oral administration on day 1 and 10 at T max. The samples were stored at −80 °C until analysis. Beagle dogs (three animals/sex/dose) were dosed by gavage at 5.62, 11.25, 22.5 mg/kg metapristone (in soybean oil solution). Dog blood (0.25 mL) was withdrawn from the jugular vein at 0.5, 1.0, 2.0, 4.0, 6.0, 8.0, 10, 12, 24 and 48 h after a single oral administration.
The plasma samples obtained by centrifugation at 4000 g for 10 min and stored at −80 °Cuntil analysis. To each 100 µL of plasma sample, 50 µL of internal standard solution were added. Metapristone was then separated and analyzed by the LC/MS/MS method according to the previously described procedures. Peak area ratios of metapristone to the internal standard were plotted against theoretical concentrations. The maximum plasma concentration (C max), the time to reach C max (T max) were determined directly from experimental data. The other pharmacokinetic parameters such as elimination half-life (t 1/2), and mean residence time (MRT) were calculated by using the non-compartmental pharmacokinetics data analysis software of DAS version 3.2 (Bio Guider Co., Shanghai, China). The area under the plasma concentration-time curve from zero to infinity was calculated by using the linear trapezoidal rule with extrapolation to infinity with terminal constant eliminate rate (k e). Bioavailability was calculated as (AUCp.o./AUCi.v.) x (dosei.v./ dosep.o.) 100% as we previously described.

[2] = Sprague-Dawley, rat, plasma, iv, female rats, i.v. 10 mg/kg
[3] = Sprague-Dawley, rat, plasma, iv, male rats, i.v. 10 mg/kg
[4] = Sprague-Dawley, rat, plasma, po, female rats, p.o. 22.5 mg/kg
[5] = Sprague-Dawley, rat, plasma, po, female rats, p.o. 45 mg/kg
[6] = Sprague-Dawley, rat, plasma, po, female rats, p.o. 90 mg/kg
[7] = Sprague-Dawley, rat, plasma, po, male rats, p.o. 22.5 mg/kg
[8] = Sprague-Dawley, rat, plasma, po, male rats, p.o. 45 mg/kg
[9] = Sprague-Dawley, rat, plasma, po, male rats, p.o. 90 mg/kg

CYP3A4 western blot staining density relative to controls (100%) (CYP3A4; female rats, 22.5 mg/kg/day p.o. for 7 days): 107 ± 13%
CYP3A4 western blot staining density relative to controls (100%) (CYP3A4; female rats, 45 mg/kg/day p.o. for 7 days): 128 ± 12%
CYP3A4 western blot staining density relative to controls (100%) (CYP3A4; male rats, 22.5 mg/kg/day p.o. for 7 days): 115 ± 14%
CYP3A4 western blot staining density relative to controls (100%) (CYP3A4; male rats, 45 mg/kg/day p.o. for 7 days): 153 ± 17%
AUC(0-inf) [1, 2]: 9810 ± 2340 ng·h/mL
AUC(0-t) [1, 2]: 9750 ± 2320 ng·h/mL
Cmax [1, 2]: 6050 ± 670 ng/mL
half-life [1, 2]: 5.18 ± 3.41 h
MRT last [1, 2]: 1.68 ± 0.72 h
AUC(0-inf) [1, 3]: 5460 ± 1150 ng·h/mL
AUC(0-t) [1, 3]: 5520 ± 1150 ng·h/mL
Cmax [1, 3]: 4050 ± 250 ng/mL
half-life [1, 3]: 9.45 ± 4.99 h
MRT last [1, 3]: 1.56 ± 0.41 h
AUC(0-inf) [1, 4]: 4230 ± 1640 ng·h/mL
AUC(0-t) [1, 4]: 4050 ± 1620 ng·h/mL
Cmax [1, 4]: 270 ± 50 ng/mL
half-life [1, 4]: 10.8 ± 3.2 h
bioavailability ([1]; Sprague-Dawley, rat, plasma, po, female rats, p.o. 22.5 mg/kg, read-out: F): 18.5%
MRT last [1, 4]: 14.4 ± 5.65 h
Tmax ([1]; Sprague-Dawley, rat, plasma, po, female rats, p.o. 22.5 mg/kg, read-out: T max): 9 ± 7.5 h
Vd/F ([1]; Sprague-Dawley, rat, plasma, po, female rats, p.o. 22.5 mg/kg, read-out: V d /F): 77.3 ± 36 L/kg
AUC(0-inf) [1, 5]: 11300 ± 3170 ng·h/mL
AUC(0-t) [1, 5]: 9630 ± 4540 ng·h/mL
Cmax [1, 5]: 650 ± 220 ng/mL
half-life [1, 5]: 10.7 ± 3.71 h
bioavailability ([1]; Sprague-Dawley, rat, plasma, po, female rats, p.o. 45 mg/kg, read-out: F): 22%
MRT last [1, 5]: 13.7 ± 6.91 h
Tmax ([1]; Sprague-Dawley, rat, plasma, po, female rats, p.o. 45 mg/kg, read-out: T max): 11 ± 12.3 h
Vd/F ([1]; Sprague-Dawley, rat, plasma, po, female rats, p.o. 45 mg/kg, read-out: V d /F): 67.6 ± 47.6 L/kg
AUC(0-inf) [1, 6]: 15600 ± 2100 ng·h/mL
AUC(0-t) [1, 6]: 14900 ± 2190 ng·h/mL
Cmax [1, 6]: 790 ± 200 ng/mL
half-life [1, 6]: 8.83 ± 7.3 h
bioavailability ([1]; Sprague-Dawley, rat, plasma, po, female rats, p.o. 90 mg/kg, read-out: F): 16.9%
MRT last [1, 6]: 15.6 ± 5.82 h
Tmax ([1]; Sprague-Dawley, rat, plasma, po, female rats, p.o. 90 mg/kg, read-out: T max): 7.58 ± 3.38 h
Vd/F ([1]; Sprague-Dawley, rat, plasma, po, female rats, p.o. 90 mg/kg, read-out: V d /F): 86.3 ± 62.9 L/kg
AUC(0-inf) [1, 7]: 4470 ± 1110 ng·h/mL
AUC(0-t) [1, 7]: 3570 ± 1090 ng·h/mL
Cmax [1, 7]: 30 ± 10 ng/mL
half-life [1, 7]: 8 ± 2.4 h
bioavailability ([1]; Sprague-Dawley, rat, plasma, po, male rats, p.o. 22.5 mg/kg, read-out: F): 28.7%
MRT last [1, 7]: 11.2 ± 2.12 h
Tmax ([1]; Sprague-Dawley, rat, plasma, po, male rats, p.o. 22.5 mg/kg, read-out: T max): 5.7 ± 2 h
Vd/F ([1]; Sprague-Dawley, rat, plasma, po, male rats, p.o. 22.5 mg/kg, read-out: V d /F): 804 ± 267 L/kg
AUC(0-inf) [1, 8]: 2040 ± 1330 ng·h/mL
AUC(0-t) [1, 8]: 1960 ± 1320 ng·h/mL
Cmax [1, 8]: 140 ± 100 ng/mL
half-life [1, 8]: 8.11 ± 4.31 h
bioavailability ([1]; Sprague-Dawley, rat, plasma, po, male rats, p.o. 45 mg/kg, read-out: F): 7.9%
MRT last [1, 8]: 13.9 ± 1.17 h
Tmax ([1]; Sprague-Dawley, rat, plasma, po, male rats, p.o. 45 mg/kg, read-out: T max): 7.7 ± 2.9 h
Vd/F ([1]; Sprague-Dawley, rat, plasma, po, male rats, p.o. 45 mg/kg, read-out: V d /F): 768 ± 127 L/kg
AUC(0-inf) [1, 9]: 8920 ± 960 ng·h/mL
AUC(0-t) [1, 9]: 8760 ± 70 ng·h/mL
Cmax [1, 9]: 550 ± 180 ng/mL
half-life [1, 9]: 4.62 ± 3 h
bioavailability ([1]; Sprague-Dawley, rat, plasma, po, male rats, p.o. 90 mg/kg, read-out: F): 17.6%
MRT last [1, 9]: 12.8 ± 2.43 h
Tmax ([1]; Sprague-Dawley, rat, plasma, po, male rats, p.o. 90 mg/kg, read-out: T max): 10.3 ± 2.7 h
Vd/F ([1]; Sprague-Dawley, rat, plasma, po, male rats, p.o. 90 mg/kg, read-out: V d /F): 92.5 ± 91.7 L/kg
bioavailability ([1]; Sprague-Dawley, rat, plasma, male rats, range over three oral doses, read-out: Oral bioavailability): 2.1 to 17.6%
Tmax ([1]; Sprague-Dawley, rat, plasma, rats, both sexes, oral doses of Table 1, read-out: T max after oral absorption): 5.7 to 11 h
CL/F ([1]; female rats, i.v. 10 mg/kg): 17.7 ± 4.17 mL/min/kg
Vd/F ([1]; female rats, i.v. 10 mg/kg): 8.02 ± 6.13 L/kg
CL/F ([1]; female, Sprague-Dawley, rat, plasma, po, 22.5 mg/kg, female rats, p.o. 22.5 mg/kg, read-out: CL/F (converted)): 117 mL/min/kg
CL/F ([1]; female, Sprague-Dawley, rat, plasma, po, 45 mg/kg, female rats, p.o. 45 mg/kg, read-out: CL/F (converted)): 87.5 mL/min/kg
CL/F ([1]; female, Sprague-Dawley, rat, plasma, po, 90 mg/kg, female rats, p.o. 90 mg/kg, read-out: CL/F (converted)): 80.8 mL/min/kg
decrease of CL/F for female rats versus male rats ([1]; i.v. 10 mg/kg): 87%
CL/F ([1]; male rats, i.v. 10 mg/kg): 33 ± 6.5 mL/min/kg
Vd/F ([1]; male rats, i.v. 10 mg/kg): 24.34 ± 5.52 L/kg
CL/F ([1]; male rats, p.o. 45 mg/kg, 45 mg/kg): 782.2 ± 345 mL/min/kg
CL/F ([1]; male, Sprague-Dawley, rat, plasma, po, 22.5 mg/kg, male rats, p.o. 22.5 mg/kg, read-out: CL/F (converted)): 1160 mL/min/kg
CL/F ([1]; male, Sprague-Dawley, rat, plasma, po, 45 mg/kg, male rats, p.o. 45 mg/kg, read-out: CL/F (converted)): 782 mL/min/kg
CL/F ([1]; male, Sprague-Dawley, rat, plasma, po, 90 mg/kg, male rats, p.o. 90 mg/kg, read-out: CL/F (converted)): 196 mL/min/kg
increase of C max for female rats versus male rats ([1]; p.o. 45 mg/kg): 364%
SMILES: CC#C[C@]1(O)CC[C@H]2[C@@H]3CCC4=CC(=O)CCC4=C3[C@@H](c3ccc(NC)cc3)C[C@@]21C [metapristone, N-monodemethyl mifepristone]
